Assay results: US20240246934A1, “QUINAZOLINE-BASED COMPOUND, COMPOSITION, AND APPLICATION OF QUINAZOLINE-BASED COMPOUND” (BEIJING SCITECH-MQ PHARMACEUTICALS LIMITED, priority 2021, published 2024)

Experiments:
[1] = Pharmacokinetics in SD rats, single intravenous injection and oral administration; assay type: in vivo, SD rat
Protocol: In this assay, the pharmacokinetic characteristics of the compounds of the present application were assayed after administration of some of the compounds of the present application to SD rats by single oral administration and intravenous injection. 1. […] The mixture was stirred, vortexed and/or sonicated. Once a solution was obtained, the vehicle was gradually added to a final volume to reach the target concentration. The solution was vortexed, and sonicated to obtain a homogeneous solution. The solution was filtered through a 0.22 μm PVDF membrane. 2. […] The mixture was stirred, vortexed and/or sonicated. Once a solution was obtained, the vehicle was gradually added to a final volume to reach the target concentration. The solution was vortexed, and sonicated to obtain a homogeneous solution. […] Meanwhile, the IV group was not fasted and the PO group was fasted overnight (>12 hrs) and given food 2 hrs after drug administration. All animals had free access to water. The dosing regimen and pharmacokinetic sampling regimen are given in Table 6 and Table 7 below, respectively. […] Rats were administered according to the above regimen, and blood and brain tissue samples were collected and processed at predetermined time points (collection and processing were performed according to conventional methods in the art). […] The supernatant was diluted 2-fold with ultra-pure water, and the samples were analyzed by LC/MS. Pharmacokinetic parameters was calculated using WinNonlin software. The following pharmacokinetic parameters was calculated from the plasma drug concentration-time data: CL (clearance); Vd (apparent volume of distribution); T1/2 (elimination half-life time); Cmax (peak concentration); Tmax (time to peak); AUC (area under plasma drug concentration-time curve); MRT (mean retention time); F % (bioavailability).

HER2 kinase = target: T1, HER2 kinase (Homo sapiens, UniProt P04626); assay: HER2 kinase assay (ULight/PT66 TR-FRET); assay type: biochemical
T1 construct: purchased Carna Biosciences 08-016
Protocol: (§1) Preparation of compound solution: The assay compound was dissolved in DMSO to form a 10 mM stock solution. Prior to use, the compound was diluted to 0.25 mM in DMSO (100 times the final concentration of the diluent) and then subjected to a 3-fold concentration gradient dilution to obtain a total of 11 concentrations. The solution was diluted with buffer to a diluent with 4× the final concentration when the compound was added.
(§2) HER2 kinase assay: buffer was prepared, and 40 nM 4×Her2 kinase solution, 40 μM 4×ATP solution, and 400 nM 4×ULight™-labeled Ploy GT Peptide substrate solution were prepared using the buffer. After the preparation was completed, the enzyme was mixed with different concentrations of compounds pre-prepared by dilution, and the mixture was left to stand at room temperature for 5 min. Each concentration was performed in duplicate. The corresponding substrate and ATP were added and the mixture was reacted at room temperature for 120 minutes (with negative and positive controls). After completion of the reaction, PT66 detection antibody was added. The mixture was incubated at room temperature for 60 minutes, and then detected by Envision.
(§3) Compound concentrations and corresponding inhibition rates were input into GraphPad Prism for processing to calculate IC50 values.

[2] = target: Ba/F3 HER2 A775_G776insYVMA cells (Homo sapiens, UniProt P04626, DUP772-775, cells depend on it); assay: Inhibition of cell proliferation, CTG method, Ba/F3 HER2 A775_G776insYVMA; assay type: cell-based; conditions: 72 hours, read-out: Ba/F3 HER2 A775-G776insYVMA IC50
Excerpt: The present application examined the in vitro anti-proliferative activity of the compounds of the present disclosure against in vitro cultured BT474, NCI-N87, Ba/F3-EGFR-VIII and Ba/F3 HER2 A775_G776insYVMA and Ba/F3 EGFR D770_N771insSVD cell lines by CTG method.
Cell lines: BT474 (from the cell bank of Chinese Academy of Sciences), NCI-N87 (from ATCC), Ba/F3-EGFR-VIII, Ba/F3 HER2 A775_G776insYVMA and Ba/F3 EGFR D770_N771insSVD (all from KYinno Biotechnology (Beijing) Co., Ltd.); all of the above cells were cultured with RPMI1640 medium containing 10% fetal bovine serum, 100 U/mL penicillin, and 100 μg/mL streptomycin in the culture process.
1. The assay compound was dissolved with DMSO to form a stock solution and a gradient dilution was performed, followed by dilution with the corresponding medium to obtain a solution with 5-fold working concentration.
2. Cells in logarithmic growth phase were adjusted to specific cell densities by dilution with culture medium, and 80 μL of cell suspension was added to a 96-well plate, such that plating densities of cells of BT474, NCI-N87, Ba/F3-EGFR-VIII, Ba/F3 HER2 A775_G776insYVMA and Ba/F3 EGFR D770_N771insSVD were all 3000 cells/well. The cells of Ba/F3-EGFR-VIII, Ba/F3 HER2 A775_G776insYVMA and Ba/F3 EGFR D770_N771insSVD were used directly in the next step (treatment with compound), whereas the BT474 and NCI-N87 needed to be cultured overnight in a 37° C., 5% carbon dioxide gas incubator to adhere to the wall, and then treated with compounds.
3. […] The highest concentration of the assayed compound was 10 μM, 4-fold serial dilution, a total of 9 concentrations, and duplicate wells. A control group without compound was also set up.
4. The cells were cultured for another 72 hours, and then cell viability was detected by CTG assay kit. Signal values were read with a multifunctional plate reader (Perkin Elmer). GraphPad Prism software was used to create a dose-response curve and IC50 was calculated.

EGFR^WT kinase = EGFR^WT kinase (Homo sapiens, UniProt P00533); assay: EGFR^WT kinase assay (ULight/PT66 TR-FRET); assay type: biochemical
Protocol: as §1
as §2, with “EGFR^WT kinase assay:” for “HER2 kinase assay:”, “prepared, and 3.48 nM 4×EGFR” for “prepared, and 40 nM 4×Her2”, “3.48 nM 4×EGFR kinase solution,” for “40 nM 4×Her2 kinase solution,”, “kinase solution, 600 μM 4×ATP” for “kinase solution, 40 μM 4×ATP”, “nM 4×ULight™-labeled JAK-1 (Try1023) Peptide substrate” for “nM 4×ULight™-labeled Ploy GT Peptide substrate”
as §3

[3] = SD, rat, whole blood, IV 3 mg/kg

Chain of Ba/F3 HER2 A775_G776insYVMA cells (P04626 with tags, fused parts or gaps DUP772-775): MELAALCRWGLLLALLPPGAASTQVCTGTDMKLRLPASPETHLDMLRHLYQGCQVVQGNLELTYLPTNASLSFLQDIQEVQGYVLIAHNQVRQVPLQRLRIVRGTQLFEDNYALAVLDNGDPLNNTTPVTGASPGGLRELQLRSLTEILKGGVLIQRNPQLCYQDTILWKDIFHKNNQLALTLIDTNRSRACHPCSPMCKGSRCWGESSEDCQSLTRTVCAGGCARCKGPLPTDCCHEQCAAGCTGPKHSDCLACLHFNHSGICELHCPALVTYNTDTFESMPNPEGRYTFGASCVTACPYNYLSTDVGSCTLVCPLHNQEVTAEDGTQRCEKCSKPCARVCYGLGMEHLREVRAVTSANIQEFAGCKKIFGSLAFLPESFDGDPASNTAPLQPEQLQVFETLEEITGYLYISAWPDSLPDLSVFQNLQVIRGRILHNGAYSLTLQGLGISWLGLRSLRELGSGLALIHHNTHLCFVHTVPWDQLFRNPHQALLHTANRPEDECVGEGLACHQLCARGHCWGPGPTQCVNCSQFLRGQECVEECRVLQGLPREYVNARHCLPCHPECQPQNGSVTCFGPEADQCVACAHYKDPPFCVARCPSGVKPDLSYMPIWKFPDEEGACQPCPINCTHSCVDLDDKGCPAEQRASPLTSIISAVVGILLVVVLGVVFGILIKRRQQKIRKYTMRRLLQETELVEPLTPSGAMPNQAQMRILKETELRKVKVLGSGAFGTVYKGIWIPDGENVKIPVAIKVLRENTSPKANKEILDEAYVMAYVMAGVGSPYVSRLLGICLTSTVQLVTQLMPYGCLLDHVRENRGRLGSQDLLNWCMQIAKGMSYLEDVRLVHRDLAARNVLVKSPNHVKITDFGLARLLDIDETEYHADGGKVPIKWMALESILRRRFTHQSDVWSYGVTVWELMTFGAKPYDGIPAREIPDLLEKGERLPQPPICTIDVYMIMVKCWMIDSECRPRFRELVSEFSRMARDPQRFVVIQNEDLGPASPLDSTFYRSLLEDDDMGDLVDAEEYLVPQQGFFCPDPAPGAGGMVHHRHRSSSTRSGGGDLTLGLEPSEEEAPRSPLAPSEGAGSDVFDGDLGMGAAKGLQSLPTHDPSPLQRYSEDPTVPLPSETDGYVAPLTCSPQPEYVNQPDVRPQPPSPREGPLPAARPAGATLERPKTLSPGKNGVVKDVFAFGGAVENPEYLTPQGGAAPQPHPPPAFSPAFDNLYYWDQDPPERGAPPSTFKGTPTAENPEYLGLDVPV
T1 sequence (P04626 23-1255): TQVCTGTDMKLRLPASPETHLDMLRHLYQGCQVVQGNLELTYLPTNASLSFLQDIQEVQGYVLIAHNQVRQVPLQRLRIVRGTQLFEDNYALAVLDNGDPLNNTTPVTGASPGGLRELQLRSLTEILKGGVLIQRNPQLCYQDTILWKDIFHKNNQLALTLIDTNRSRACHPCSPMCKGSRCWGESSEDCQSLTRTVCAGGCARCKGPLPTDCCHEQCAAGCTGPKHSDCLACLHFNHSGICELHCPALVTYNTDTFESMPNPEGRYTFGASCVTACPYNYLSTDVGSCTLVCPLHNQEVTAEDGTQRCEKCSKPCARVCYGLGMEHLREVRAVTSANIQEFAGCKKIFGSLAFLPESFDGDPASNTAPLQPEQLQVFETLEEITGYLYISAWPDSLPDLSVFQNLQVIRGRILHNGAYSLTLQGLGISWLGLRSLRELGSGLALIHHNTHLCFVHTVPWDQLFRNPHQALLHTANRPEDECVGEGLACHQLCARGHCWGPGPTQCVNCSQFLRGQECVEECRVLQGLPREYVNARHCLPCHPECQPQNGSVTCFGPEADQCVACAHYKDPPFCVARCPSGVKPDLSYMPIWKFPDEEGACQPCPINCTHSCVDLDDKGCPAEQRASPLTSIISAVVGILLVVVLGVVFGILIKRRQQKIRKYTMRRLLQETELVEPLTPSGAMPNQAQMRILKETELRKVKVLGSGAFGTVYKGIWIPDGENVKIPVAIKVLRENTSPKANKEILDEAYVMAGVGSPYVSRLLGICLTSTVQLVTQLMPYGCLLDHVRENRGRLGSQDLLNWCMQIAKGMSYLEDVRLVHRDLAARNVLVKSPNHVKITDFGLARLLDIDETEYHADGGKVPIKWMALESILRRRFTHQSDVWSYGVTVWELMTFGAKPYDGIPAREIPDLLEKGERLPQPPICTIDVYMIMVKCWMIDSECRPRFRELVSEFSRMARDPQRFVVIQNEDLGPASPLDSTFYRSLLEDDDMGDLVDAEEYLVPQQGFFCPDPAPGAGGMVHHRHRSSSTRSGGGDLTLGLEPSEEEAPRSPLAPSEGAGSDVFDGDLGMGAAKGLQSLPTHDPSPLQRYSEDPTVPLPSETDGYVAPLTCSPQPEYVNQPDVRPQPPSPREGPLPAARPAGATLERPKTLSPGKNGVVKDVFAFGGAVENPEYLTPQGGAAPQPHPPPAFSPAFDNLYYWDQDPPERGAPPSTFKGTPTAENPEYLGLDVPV
Chain of EGFR^WT kinase (P00533 25-1210): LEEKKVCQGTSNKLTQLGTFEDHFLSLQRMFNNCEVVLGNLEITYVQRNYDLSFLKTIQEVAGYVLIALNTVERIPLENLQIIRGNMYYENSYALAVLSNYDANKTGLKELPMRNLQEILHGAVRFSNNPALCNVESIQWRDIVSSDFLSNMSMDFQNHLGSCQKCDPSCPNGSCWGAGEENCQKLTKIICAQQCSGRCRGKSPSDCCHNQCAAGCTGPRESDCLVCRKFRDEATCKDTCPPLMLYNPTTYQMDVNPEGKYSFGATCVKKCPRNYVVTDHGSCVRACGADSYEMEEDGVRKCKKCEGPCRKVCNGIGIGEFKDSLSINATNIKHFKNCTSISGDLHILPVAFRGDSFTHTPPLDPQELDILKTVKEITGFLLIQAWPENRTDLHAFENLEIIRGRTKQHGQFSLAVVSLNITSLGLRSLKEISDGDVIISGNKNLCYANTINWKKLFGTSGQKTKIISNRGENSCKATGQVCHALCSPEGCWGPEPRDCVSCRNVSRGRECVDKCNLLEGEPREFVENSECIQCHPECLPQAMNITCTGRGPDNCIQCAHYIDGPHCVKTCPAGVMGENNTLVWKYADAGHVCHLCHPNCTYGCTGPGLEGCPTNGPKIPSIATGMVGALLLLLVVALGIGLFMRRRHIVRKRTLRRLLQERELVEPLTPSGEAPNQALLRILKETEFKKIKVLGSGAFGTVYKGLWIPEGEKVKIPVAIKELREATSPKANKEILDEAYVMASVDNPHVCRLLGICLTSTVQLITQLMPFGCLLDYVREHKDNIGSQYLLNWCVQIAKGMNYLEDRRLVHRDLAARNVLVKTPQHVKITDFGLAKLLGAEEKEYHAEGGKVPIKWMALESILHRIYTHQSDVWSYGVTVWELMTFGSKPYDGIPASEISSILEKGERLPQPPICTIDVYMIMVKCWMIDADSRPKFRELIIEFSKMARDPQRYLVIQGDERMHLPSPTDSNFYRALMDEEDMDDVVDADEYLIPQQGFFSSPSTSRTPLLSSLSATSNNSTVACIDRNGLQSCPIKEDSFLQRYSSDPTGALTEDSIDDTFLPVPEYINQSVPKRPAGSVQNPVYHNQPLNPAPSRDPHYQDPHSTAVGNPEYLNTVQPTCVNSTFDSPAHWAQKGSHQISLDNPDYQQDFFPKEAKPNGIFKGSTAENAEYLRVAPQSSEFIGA

| Compound | IC50 (HER2 kinase) [nM] | GI50 [2] [nM] | IC50 (EGFR^WT kinase) [nM] | also measured |
| --- | --- | --- | --- | --- |
| CN1CCC[C@@H]1/C=C/C(=O)Nc1ccc2ncnc(Nc3ccc(OCc4ccccn4)c(Cl)c3)c2c1 [Control compound 1, reference compound] |  |  |  | Cl_obs ([1]; IV 3 mg/kg): 72.7 ± 7.1 mL/min/kg; AUC(0-inf) [1, 3]: 693 ± 72 ng·h/mL; AUC(0-t) [1, 3]: 678 ± 74 ng·h/mL; Vd [1, 3]: 31 ± 4.6 L/kg; half-life [1, 3]: 4.91 ± 0.28 h; oral absorption (in words) ([1]; administrated orally): hardly absorbed |
| CC(C)COc1c(NC(=O)/C=C/[C@H]2CCCN2C)ccc2ncnc(Nc3ccc(OCc4ccccn4)c(Cl)c3)c12 [Example 14, (R,E)-N-(4-((3-chloro-4-(pyridin-2-ylmethoxy)phenyl)amino)-5-isobutoxyquinazolin-6-yl)-3-(1-methylpyrrolidin-2-yl)acrylamide] | < 10 | 1 to 5 | < 10 |  |
| CN1CCC[C@@H]1/C=C/C(=O)Nc1ccc2ncnc(Nc3ccc(OCc4ccccn4)c(Cl)c3)c2c1OCCC(C)(C)O [Example 16, (R,E)-N-(4-((3-chloro-4-(pyridin-2-ylmethoxy)phenyl)amino)-5-(3-hydroxy-3-methylbutoxy)quinazolin-6-yl)-3-(1-methylpyrrolidin-2-yl)acrylamide] | < 10 | 1 to 5 | < 10 |  |
| COc1c(NC(=O)/C=C/[C@H]2CCCN2C(C)C)ccc2ncnc(Nc3ccc(OCc4cccc(F)c4)c(Cl)c3)c12 [Example 18, (R,E)-N-(4-((3-chloro-4-(3-fluorobenzyloxy)phenyl)amino)-5-methoxyquinazolin-6-yl)-3-(1-isopropylpyrrolidine-2-yl)acrylamide] | < 10 | 1 to 5 | < 10 |  |
| COCCCCOc1c(NC(=O)/C=C/[C@H]2CCCN2C)ccc2ncnc(Nc3ccc(OCc4ccccn4)c(Cl)c3)c12 [Example 23, (R,E)-N-(4-((3-chloro-4-(pyridin-2-ylmethoxy)phenyl)amino)-5-(4-methoxybutoxy)quinazolin-6-yl)-3-(1-methylpyrrolidin-2-yl)acrylamide] | < 10 | 1 to 5 | 100 to 1000 |  |
| CN1CCC[C@@H]1/C=C/C(=O)Nc1ccc2ncnc(Nc3ccc(OCc4cccc(F)c4)c(Cl)c3)c2c1OC1CC1 [Example 41, (R,E)-N-(4-((3-chloro-4-((3-fluorobenzyl)oxy)phenyl)amino)-5-cyclopropoxyquinazolin-6-yl)-3-(1-methylpyrrolidone-2-yl)acrylamide] | < 10 | 1 to 5 |  |  |
| COc1c(NC(=O)/C=C/CN2CCCC2)ccc2ncnc(Nc3ccc(OCc4ccccn4)c(Cl)c3)c12 [Example 43, (E)-N-(4-((3-chloro-4-(pyridin-2-ylmethoxy)phenyl)amino)-5-methoxyquinazolin-6-yl)-4-(pyrrolidine-1-yl)but-2-enamide] | < 10 |  |  |  |
| COc1c(NC(=O)/C=C/CN2CCCCC2)ccc2ncnc(Nc3ccc(OCc4ccccn4)c(Cl)c3)c12 [Example 44, (E)-N-(4-((3-chloro-4-(pyridin-2-ylmethoxy)phenyl)amino)-5-methoxyquinazolin-6-yl)-4-(piperidin-1-yl)but-2-enamide] | < 10 |  |  |  |

Now from value to compound, other results behind:

| IC50 (HER2 kinase) [nM] | GI50 [2] [nM] | IC50 (EGFR^WT kinase) [nM] | Compound | also measured |
| --- | --- | --- | --- | --- |
| < 10 | 1 to 5 | < 10 | COc1c(NC(=O)/C=C/CN(C)C2CCC2)ccc2ncnc(Nc3ccc(OCc4ccccn4)c(Cl)c3)c12 [Example 3, (E)-N-(4-((3-chloro-4-(pyridin-2-ylmethoxy)phenyl)amino)-5-methoxyquinazolin-6-yl)-4-(cyclobutyl(methyl)amino)but-2-enamide] |  |
| < 10 | 1 to 5 | < 10 | CN1CCC[C@@H]1/C=C/C(=O)Nc1ccc2ncnc(Nc3ccc(OCc4ccccn4)c(Cl)c3)c2c1OCCF [Example 7, (R,E)-N-(4-((3-chloro-4-(pyridin-2-ylmethoxy)phenyl)amino)-5-(2-fluoroethoxy)quinazolin-6-yl)-3-(1-methylpyrrolidin-2-yl)acrylamide] |  |
| < 10 | 1 to 5 | < 10 | CN1CCC[C@@H]1/C=C/C(=O)Nc1ccc2ncnc(Nc3ccc(OCc4ccccn4)c(Cl)c3)c2c1OCCC(F)(F)F [Example 12, (R,E)-N-(4-((3-chloro-4-(pyridin-2-ylmethoxy)phenyl)amino)-5-(3,3,3-trifluoropropoxy)quinazolin-6-yl)-3-(1-methylpyrrolidin-2-yl)acrylamide] |  |
| < 10 | 1 to 5 | < 10 | CCOc1c(NC(=O)/C=C/[C@H]2CCCN2CC)ccc2ncnc(Nc3ccc(OCc4cccc(F)c4)c(Cl)c3)c12 [Example 19, (R,E)-N-(4-((3-chloro-4-(3-fluorobenzyloxy)phenyl)amino)-5-ethoxyquinazolin-6-yl)-3-(1-ethylpyrrolidin-2-yl)acrylamide] |  |
| < 10 | 1 to 5 | < 10 | CCOc1c(NC(=O)/C=C/[C@H]2CCCN2CC)ccc2ncnc(Nc3ccc(OCc4ccccn4)c(Cl)c3)c12 [Example 20, (R,E)-N-(4-((3-chloro-4-(pyridin-2-ylmethoxy)phenyl)amino)-5-ethoxyquinazolin-6-yl)-3-(1-ethylpyrrolidin-2-yl)acrylamide] |  |
| < 10 | 1 to 5 | < 10 | CCOc1c(NC(=O)/C=C/[C@H]2CCCN2C)ccc2ncnc(Nc3ccc(OCc4ccccn4)c(F)c3)c12 [Example 21, (R,E)-N-(5-ethoxy-4-((3-fluoro-4-(pyridin-2-ylmethoxy)phenyl)amino)quinazolin-6-yl)-3-(1-methylpyrrolidine-2-yl)acrylamide] |  |
| < 10 | 1 to 5 | < 10 | CCOc1c(NC(=O)/C=C/[C@H]2CCCN2C)ccc2ncnc(Nc3ccc(OCc4cccc(C)n4)c(Cl)c3)c12 [Example 22, (R,E)-N-(4-((3-chloro-4-((6-methylpyridin-2-yl)methoxy)phenyl)amino)-5-ethoxyquinazolin-6-yl)-3-(1-methylpyrrolidin-2-yl)acrylamide] |  |
| < 10 |  | 100 to 1000 | COc1c(NC(=O)/C=C/[C@H]2CCCN2C2CCC2)ccc2ncnc(Nc3ccc(OCc4ccccn4)c(Cl)c3)c12 [Example 42, (R,E)-N-(4-((3-chloro-4-(pyridin-2-ylmethoxy)phenyl)amino)-5-methoxyquinazolin-6-yl)-3-(1-cyclobutylpyrrolidin-2-yl)acrylamide] |  |
